In patent US20230276831A1, “Food/Beverage Article” (Kikkoman Corporation, priority 2020, published 2023):

Tested on: Lactobacillus rennini (DSM 20253)
Assay: Antimicrobial action of licoricidin in soy sauce at various pH (Test Example 5)
Assay type: cell-based
Set-up: key: A: The bacterial count decreases to less than 10% of the bacterial count of the control group.; B: The bacterial count decreases to 10% or more and less than 50% of the bacterial count of the control group.; C: The bacterial count decreases to 50% or more and less than 100% of the bacterial count of control group.; D: The bacterial count is the same as the bacterial count of the control group
Conditions: salt 4% (w/v)
Procedure: Commercially available whole soybean soy sauce (produced by Kikkoman Corporation) was electrodialyzed and then concentrated under reduced pressure to obtain soy sauce at a salt concentration of 0% (w/v) and an alcohol concentration of 0% (v/v). Then, salt and/or alcohol was added to the above-mentioned obtained soy sauce, and hydrochloric acid or an aqueous sodium hydroxide solution was then added to adjust the pH to a desired pH. Germfree purified water was added, and the mixture was then heat-treated to produce soy sauce at the salt concentration, the alcohol concentration, and the pH shown in the following Table 17.
Licoricidin (produced by ChemFaces) was added to each of the obtained soy sauces to concentrations of 1 ppm, 5 ppm, 10 ppm, 25 ppm, and 50 ppm. Lactic acid bacteria (Lactobacillus rennini (DSM 20253)) were then added to 10^6 to 10^7 cells/mL and cultured at 30° C. for 7 days. After the culture, the number of lactic acid bacteria was measured using the GAM agar medium “Nissui”. Soy sauce to which licoricidin was not added was used as a control group, and the antimicrobial activity was evaluated in comparison with the number of lactic acid bacteria in the control group. The evaluation was performed using the same criterion as in Test Example 4.

SMILES: COc1c(CC=C(C)C)c(O)cc2c1C[C@H](c1ccc(O)c(CC=C(C)C)c1O)CO2 [Licoricidin, 4-[(R)-7-hydroxy-5-methoxy-6-(3-methyl-2-butenyl)chroman-3-yl]-2-(3-methyl-2-butenyl)-1,3-benzenediol]
- Antimicrobial activity (pH 4.2, alcohol 0% (v/v), licoricidin 1 ppm): B (The bacterial count decreases to 10% or more and less than 50% of the bacterial count of the control group.)
- Antimicrobial activity (pH 4.2, alcohol 0% (v/v), licoricidin 5 ppm): A (The bacterial count decreases to less than 10% of the bacterial count of the control group.)
- Antimicrobial activity (pH 4.2, alcohol 0% (v/v), licoricidin 10 ppm): A (The bacterial count decreases to less than 10% of the bacterial count of the control group.)
- Antimicrobial activity (pH 4.2, alcohol 0% (v/v), licoricidin 25 ppm): A (The bacterial count decreases to less than 10% of the bacterial count of the control group.)
- Antimicrobial activity (pH 4.2, alcohol 0% (v/v), licoricidin 50 ppm): A (The bacterial count decreases to less than 10% of the bacterial count of the control group.)
- Antimicrobial activity (pH 4.2, alcohol 5% (v/v), licoricidin 1 ppm): C (The bacterial count decreases to 50% or more and less than 100% of the bacterial count of control group.)
- Antimicrobial activity (pH 4.2, alcohol 5% (v/v), licoricidin 5 ppm): A (The bacterial count decreases to less than 10% of the bacterial count of the control group.)
- Antimicrobial activity (pH 4.2, alcohol 5% (v/v), licoricidin 10 ppm): A (The bacterial count decreases to less than 10% of the bacterial count of the control group.)
- Antimicrobial activity (pH 4.2, alcohol 5% (v/v), licoricidin 25 ppm): A (The bacterial count decreases to less than 10% of the bacterial count of the control group.)
- Antimicrobial activity (pH 4.2, alcohol 5% (v/v), licoricidin 50 ppm): A (The bacterial count decreases to less than 10% of the bacterial count of the control group.)
- Antimicrobial activity (pH 4.6, alcohol 0% (v/v), licoricidin 1 ppm): D
- Antimicrobial activity (pH 4.6, alcohol 0% (v/v), licoricidin 5 ppm): D
- Antimicrobial activity (pH 4.6, alcohol 0% (v/v), licoricidin 10 ppm): A (The bacterial count decreases to less than 10% of the bacterial count of the control group.)
- Antimicrobial activity (pH 4.6, alcohol 0% (v/v), licoricidin 25 ppm): A (The bacterial count decreases to less than 10% of the bacterial count of the control group.)
- Antimicrobial activity (pH 4.6, alcohol 0% (v/v), licoricidin 50 ppm): A (The bacterial count decreases to less than 10% of the bacterial count of the control group.)
- Antimicrobial activity (pH 4.6, alcohol 5% (v/v), licoricidin 1 ppm): B (The bacterial count decreases to 10% or more and less than 50% of the bacterial count of the control group.)
- Antimicrobial activity (pH 4.6, alcohol 5% (v/v), licoricidin 5 ppm): A (The bacterial count decreases to less than 10% of the bacterial count of the control group.)
- Antimicrobial activity (pH 4.6, alcohol 5% (v/v), licoricidin 10 ppm): A (The bacterial count decreases to less than 10% of the bacterial count of the control group.)
- Antimicrobial activity (pH 4.6, alcohol 5% (v/v), licoricidin 25 ppm): A (The bacterial count decreases to less than 10% of the bacterial count of the control group.)
- Antimicrobial activity (pH 4.6, alcohol 5% (v/v), licoricidin 50 ppm): A (The bacterial count decreases to less than 10% of the bacterial count of the control group.)
- Antimicrobial activity (pH 5.0, alcohol 0% (v/v), licoricidin 1 ppm): B (The bacterial count decreases to 10% or more and less than 50% of the bacterial count of the control group.)
- Antimicrobial activity (pH 5.0, alcohol 0% (v/v), licoricidin 5 ppm): A (The bacterial count decreases to less than 10% of the bacterial count of the control group.)
- Antimicrobial activity (pH 5.0, alcohol 0% (v/v), licoricidin 10 ppm): A (The bacterial count decreases to less than 10% of the bacterial count of the control group.)
- Antimicrobial activity (pH 5.0, alcohol 0% (v/v), licoricidin 25 ppm): A (The bacterial count decreases to less than 10% of the bacterial count of the control group.)
- Antimicrobial activity (pH 5.0, alcohol 0% (v/v), licoricidin 50 ppm): A (The bacterial count decreases to less than 10% of the bacterial count of the control group.)
- Antimicrobial activity (pH 5.0, alcohol 5% (v/v), licoricidin 1 ppm): C (The bacterial count decreases to 50% or more and less than 100% of the bacterial count of control group.)
- Antimicrobial activity (pH 5.0, alcohol 5% (v/v), licoricidin 5 ppm): A (The bacterial count decreases to less than 10% of the bacterial count of the control group.)
- Antimicrobial activity (pH 5.0, alcohol 5% (v/v), licoricidin 10 ppm): A (The bacterial count decreases to less than 10% of the bacterial count of the control group.)
- Antimicrobial activity (pH 5.0, alcohol 5% (v/v), licoricidin 25 ppm): A (The bacterial count decreases to less than 10% of the bacterial count of the control group.)
- Antimicrobial activity (pH 5.0, alcohol 5% (v/v), licoricidin 50 ppm): A (The bacterial count decreases to less than 10% of the bacterial count of the control group.)
- Antimicrobial activity (pH 5.4, alcohol 0% (v/v), licoricidin 1 ppm): B (The bacterial count decreases to 10% or more and less than 50% of the bacterial count of the control group.)
- Antimicrobial activity (pH 5.4, alcohol 0% (v/v), licoricidin 5 ppm): A (The bacterial count decreases to less than 10% of the bacterial count of the control group.)
- Antimicrobial activity (pH 5.4, alcohol 0% (v/v), licoricidin 10 ppm): A (The bacterial count decreases to less than 10% of the bacterial count of the control group.)
- Antimicrobial activity (pH 5.4, alcohol 0% (v/v), licoricidin 25 ppm): A (The bacterial count decreases to less than 10% of the bacterial count of the control group.)
- Antimicrobial activity (pH 5.4, alcohol 0% (v/v), licoricidin 50 ppm): A (The bacterial count decreases to less than 10% of the bacterial count of the control group.)
- Antimicrobial activity (pH 5.4, alcohol 5% (v/v), licoricidin 1 ppm): C (The bacterial count decreases to 50% or more and less than 100% of the bacterial count of control group.)
- Antimicrobial activity (pH 5.4, alcohol 5% (v/v), licoricidin 5 ppm): A (The bacterial count decreases to less than 10% of the bacterial count of the control group.)
- Antimicrobial activity (pH 5.4, alcohol 5% (v/v), licoricidin 10 ppm): A (The bacterial count decreases to less than 10% of the bacterial count of the control group.)
- Antimicrobial activity (pH 5.4, alcohol 5% (v/v), licoricidin 25 ppm): A (The bacterial count decreases to less than 10% of the bacterial count of the control group.)
- Antimicrobial activity (pH 5.4, alcohol 5% (v/v), licoricidin 50 ppm): A (The bacterial count decreases to less than 10% of the bacterial count of the control group.)
- Antimicrobial activity (pH 5.8, alcohol 0% (v/v), licoricidin 1 ppm): D
- Antimicrobial activity (pH 5.8, alcohol 0% (v/v), licoricidin 5 ppm): A (The bacterial count decreases to less than 10% of the bacterial count of the control group.)
- Antimicrobial activity (pH 5.8, alcohol 0% (v/v), licoricidin 10 ppm): A (The bacterial count decreases to less than 10% of the bacterial count of the control group.)
- Antimicrobial activity (pH 5.8, alcohol 0% (v/v), licoricidin 25 ppm): A (The bacterial count decreases to less than 10% of the bacterial count of the control group.)
- Antimicrobial activity (pH 5.8, alcohol 0% (v/v), licoricidin 50 ppm): A (The bacterial count decreases to less than 10% of the bacterial count of the control group.)
- Antimicrobial activity (pH 5.8, alcohol 5% (v/v), licoricidin 1 ppm): D
- Antimicrobial activity (pH 5.8, alcohol 5% (v/v), licoricidin 5 ppm): D
- Antimicrobial activity (pH 5.8, alcohol 5% (v/v), licoricidin 10 ppm): A (The bacterial count decreases to less than 10% of the bacterial count of the control group.)
- Antimicrobial activity (pH 5.8, alcohol 5% (v/v), licoricidin 25 ppm): A (The bacterial count decreases to less than 10% of the bacterial count of the control group.)
- Antimicrobial activity (pH 5.8, alcohol 5% (v/v), licoricidin 50 ppm): A (The bacterial count decreases to less than 10% of the bacterial count of the control group.)
